Data reported in patent publication US20250359555A1, “STREPTOMYCES VENEZUELAE FOR THE BIOLOGICAL CONTROL OF PLANT DISEASES” (UNIVERSITA' DEGLI STUDI DI MODENA E REGGIO EMILIA (80%), priority 2022, published 2025).

Assays:
Fusarium spp. [1] = assay: Field trial onion var. Elenka, emergence and bio-control under natural Fusarium spp. inoculum pressure (FC2020); format: in vivo; details: for number of emerged seedlings: control 182.50; for number of emerged plants: fourth survey (97 days after the sowing)
Experimental: (§1) In this experiment, onion var. Elenka was tested. The test experimental design was organized at randomized blocks for the 4 treatment types, each in duplicate. In the extended test carried out at an experimental field with high natural pressure of fungal inoculum of Fusarium spp., the experimental plots had the following dimensions: 1.8 m (width)×25 m (length) with four sowing rows per parcel The sowing was performed with mechanical seeder (mod. SPX 2015-Bassi Seminatrici, IT) at the density of 600,000 onion seeds per hectare. The surveys were carried out on a length of 20 meters, in the medial part of each respective plot. The recorded data of disease severity were subjected to statistical analysis of the variance (one-way ANOVA). The results were compared to the post hoc Tukey's HDS test.
In the preparation phase before the sowing, the fields were not treated with herbicides or fungicides. During the experimental test, carried out following the agronomical good practices, harmful bacteria and insects' infections were not observed, causing damages to the cultures during the experiment. The weeds were controlled according to the disciplinary regulation described in Cornell Vegetable Management Guidelines and Recommendations (Reiners et al., 2019).
Samples of symptomatic material such as onion roots and bulbs were withdrawn during the cultural season for isolating Fusarium-like fungal colonies and the subsequent identification thereof and confirmation of the etiological agent, through a preliminary analysis of conidial identification at the microscope, followed by a molecular analysis. The molecular identification was carried out through the amplification of the conserved region ITS by polymerase chain reaction (PCR) according to White et al., 1990. The amplification products were then purified and sequenced at Bio-Fab Research s.r.l. (Rome, IT). The nucleotide sequences of ribosomal DNA of the conserved region ITS (Internal Transcription Spaces) were then analyzed through the program for the research of sequence similarity in the international DNA database BLAST (Basic Local Alignment Search Tool;//www.ncbi.nlm.nih.gov/BLAST).

onion var. Elenka = assay: Field trial onion var. Elenka, agronomic features (phenological development) (FC2020); format: in vivo, Allium cepa
Experimental: as §1
For the assay description, experimental design, agronomic practices, see Example 7. Before sowing, the fields were not treated with herbicides or fungicides. During the experimental field trial, carried out according to the best agronomical practices, harmful bacteria and insects' infections were not observed, causing damages to the cultures during the experiment. The weeds were managed according to the disciplinary regulations described in Cornell Vegetable Management Guidelines and Recommendations (Reiners et al., 2019). […]

Fusarium spp. [2] = assay: Field trial onion var. Fundador, emergence and bio-control under natural Fusarium spp. inoculum pressure (FC2020); format: in vivo; details: first survey (18 days after the sowing), control 178.12
Experimental: as §1
For trial description, experimental design, agronomic practices, see Example 7. […]. The recorded data were subjected to statistical analysis of the variance (one-way ANOVA). The results were compared to the post hoc Tukey's HDS test.

fennel var. Crono [3] = assay: Commercial field trial fennel var. Crono, emergence and germination (AQ2020); format: in vivo, Foeniculum vulgare
Excerpt: In this experiment, the fennel var. Crono was used, in order to study the effect of Streptomyces sp. DLS 1568, applied as microbial coating agent, on the emergence and germination of the crop.
The test experimental design was organized at randomized blocks for the 4 treatment types, each in duplicate (replicate). In the experimental test carried out at a plot, the experimental parcels had the following dimensions: 1.5 m (width)×100 m (length) with four sowing rows per plot. The sowing was carried out with a mechanical seeder. During the experimental field trials, conducted according to the best agronomical practices, harmful bacteria and insects' infections were not observed, causing damages to the cultures during the experiment. Weeds were controlled according to the farms' integrated weed management.
The first survey was carried out 20 days after the sowing, assessing the whole length of each plots. The second survey was carried out 32 days after seed sowing and the third and last survey was done after one month from the second survey. The recorded data were subjected to the statistical analysis of the variance (one-way ANOVA). The results were compared to the post hoc Tukey's HDS test.

fennel var. Crono [4] = assay: Field trial fennel var. Crono, emergence, germination and vigor (AQ2021); format: in vivo, Foeniculum vulgare; details: for average vigor index: scale 1-4 (Table 8)
Experimental: For the field trial description, experimental design, and the applied agronomic practices, see Example 10.
For this experiment, sowing was carried out with mechanical seeder. The first survey was carried out 14 days after the sowing, assessing the whole length of each plot: 1.5 m (width)×100 m (length) with four sowing rows per plot. The second survey was carried out one month after sowing and the third and last survey two months after sowing, assessing both number of emerged plants and vigor according to the assessment scale described in Table 8. The recorded data were subjected to the statistical analysis of the variance (one-way ANOVA). The results were compared to the post hoc Tukey's HDS test.

[5] = first survey (18 days after the sowing)
[6] = second survey (42 days after the sowing)

SMILES | number of emerged seedlings (Fusarium spp. [1]; [5]) | number of emerged plants (Fusarium spp. [1]) | number of plants emerged (Fusarium spp. [1]; [6]) | plant height (onion var. Elenka; second survey) | number of plants emerged (Fusarium spp. [2]) | Number of emerged plants, Survey 1 Average value (fennel var. Crono [3]; AQ2020, 20 days after the sowing, control 339.50) | Number of emerged plants, Survey 2 Average value (fennel var. Crono [3]; AQ2020, 32 days after sowing, after manual thinning, control 194.40) | Number of emerged plants, Survey 3 Average value (fennel var. Crono [3]; AQ2020, one month from the second survey, control 187.00) | Number of emerged plants, Survey 1 Average value (fennel var. Crono [4]; AQ2021, 14 days after the sowing, control 313.00) | Number of emerged plants, Survey 2 Average value (fennel var. Crono [4]; AQ2021, one month after sowing, after manual thinning, control 180.75) | average vigor index (fennel var. Crono [4]; AQ2021, second survey, control 2.34) | average vigor index (fennel var. Crono [4]; AQ2021, third survey, control 2.71) | Number of emerged plants, Survey 3 Average value (fennel var. Crono [4]; AQ2021, two months after sowing, control 173.00) | increase of the germinal emergence with respect to the control (Fusarium spp. [1]; [5]) | increase of the germinal emergence with respect to the treatment with Streptomyces sp. SA51 (Fusarium spp. [1]; [5]) | increase of the germinal emergence with respect to the treatment with fludioxonil (Fusarium spp. [1]; [5]) | increase of number of emerged plants with respect to Streptomyces sp. SA51 (Fusarium spp. [1]; [6]) | increase of number of emerged plants with respect to fludioxonil (Fusarium spp. [1]; [6]) | number of leaves (onion var. Elenka; third survey)
N#Cc1c[nH]cc1-c1cccc2c1OC(F)(F)O2 [Fludioxonil, fludioxonil] | 175.63 | 72.75 | 147.00 | 10.11 cm | 210.12 | 339.50 | 217.30 | 198.62 | 323.88 | 205.00 | 2.49 | 3.01 | 186.63 |  |  |  |  |  | 
O=[O+][O-] [Ozone] | 214.63 | 119.17 | 207.88 |  | 185.87 |  |  |  |  |  |  |  |  | 17% | 26% | 22% | 51% | 41% | 4.69
